Assay results as given in patent US20260283206A1, “SWEETENER COMPOSITIONS” (CARGILL, INCORPORATED, priority 2023, published 2026).
“Also recorded” adds a separate entry of the source.

Experiment: Sensory panel assay of aqueous steviol glycoside solutions (roundtable consensus, descriptive analysis)
Assay type: in vivo
Conditions: 500 ppm in reverse osmosis water, panel of four; for Sensory Attribute Comments - Off-tastes (bitterness, metallic taste) / Sensory Attribute Comments - Sweetness (intensity / profile): compared against Reb A and Reb D/M
Description: Assays were carried out to characterize the sensory attributes, e.g., sweetness profile, of aqueous solutions of samples. Sensory attributes of the compositions were tested by a panel of individuals that are experienced in sensory testing. The experienced panelists assessed sensory attributes such as, but not limited to, bitterness, metallic notes, mouth drying, sweetness intensity, and sweetness linger. The panelists compared the sweeteners against Reb A and Reb D/M. To test each composition, the experienced panelists dispensed approximately 2-4 fl oz of each sample or solution into their own mouths, dispersed the solution by moving their tongues, and individually recorded a sensory attribute scale value. Between tasting solutions, the panelists were able to cleanse their palates with water and/or rice crackers.
Assays were carried out to characterize the sensory attributes of aqueous solutions. Sensory attributes were analyzed by a panel of four individuals using a roundtable consensus approach. All panelists used the assay method described above. The panelists provided a descriptive analysis of the samples. The sensory attributes of Reb A and Reb D/M are known, and thus Reb A and Reb D/M were used as comparative samples. The sweetness profile of Reb A is described in the art, for example in DuBois et al. (“Concentration—Repose Relationship of Sweeteners,” Sweeteners: Discovery, Molecular Design, and Chemoreception, Chapter 20, pages 261-276, American Chemical Society 1991).

SMILES | Sensory Attribute Comments - Off-tastes (bitterness, metallic taste) | Sensory Attribute Comments - Sweetness onset and rise | Sensory Attribute Comments - Sweetness (intensity / profile)
C=C1C[C@@]23CC[C@H]4[C@@](C)(CCC[C@@]4(C)C(=O)O[C@@H]4O[C@H](CO)[C@@H](O)[C@H](O)[C@H]4O[C@@H]4O[C@H](CO)[C@@H](O)[C@H](O)[C@H]4O)[C@@H]2CC[C@]1(O[C@@H]1O[C@H](CO)[C@@H](O)[C@H](O[C@@H]2O[C@H](CO)[C@@H](O)[C@H](O)[C@H]2O)[C@H]1O[C@@H]1OC[C@@H](C)[C@H](O)[C@H]1O)C3 [Sample 1, rebaudioside EM] | Off-tastes: Less bitter than Reb A. |  | 
C=C1CC23CCC4C(C)(C(=O)OC5OC(CO)C(O)C(OC6OC(CO)C(O)C(O)C6O)C5OC5OCC(O)C(O)C5O)CCCC4(C)C2CCC1(OC1OC(CO)C(O)C(OC2OC(CO)C(O)C(O)C2O)C1OC1OC(CO)C(O)C(O)C1O)C3 (stereo not drawn) [Sample 2, rebaudioside V2] | Off-tastes: Very faint bitterness. Quite clean sweetness. | (Reb D/M). Slight delay in onset (less delay than Sample; also recorded: very rapid rise | Sweetness: Higher peak sweetness than Sample 5
C=C1C[C@@]23CC[C@H]4[C@@](C)(CCC[C@@]4(C)C(=O)O[C@@H]4O[C@H](CO)[C@@H](O)[C@H](O)[C@H]4O)[C@@H]2CC[C@]1(O[C@@H]1O[C@H](CO)[C@@H](O)[C@H](O[C@@H]2O[C@H](CO)[C@@H](O)[C@H](O)[C@H]2O)[C@H]1O[C@@H]1O[C@H](CO)[C@@H](O)[C@H](O)[C@H]1O)C3 [Sample 3, rebaudioside A, reference compound] | Off-tastes: Typical Reb A bitterness, metallic taste. |  | Sweetness: Sweetness profile typical of Reb A.
